# Source: US4698339A, “Carbapenems, their production and use” (Takeda Chemical Industries, Ltd., priority 1983, dated 1987)
# Legend:
# [1] = tested on: Klebsiella pneumoniae DT; test: MIC by agar dilution method, Klebsiella pneumoniae DT; type: cell-based; settings: Trypticase soy agar, about 10^8 CFU/ml, 18 hours at 37° C., read-out: MIC (minimal inhibitory concentration)
# Method: (§1) Several examples of the compound (I) as obtained in Examples were tested for MIC (mcg/ml) by the following method.
# (§2) The MIC of each test compound was determined by the agar dilution method. Thus, 1.0 ml of each aqueous serial dilution of the test compound was poured into a petri dish and then […] of Trypticase soy agar was poured into the dish followed by intimate mixing. The mixed agar plate was smeared with the suspension of a test organism (about 10^8 CFU/ml).
# (4) Klebsiella pneumoniae DT
# [2] = tested on: Escherichia coli 0-111; test: MIC by agar dilution method, Escherichia coli 0-111; type: cell-based; settings: 0111, Trypticase soy agar, about 10^8 CFU/ml, 18 hours at 37° C., read-out: MIC (minimal inhibitory concentration)
# Method: as §1, §2
# (2) Escherichia coli 0-111
# [3] = tested on: Citrobacter freundii IFO 12681; test: MIC by agar dilution method, Citrobacter freundii IFO 12681; type: cell-based; settings: IFO12681, Trypticase soy agar, about 10^8 CFU/ml, 18 hours at 37° C., read-out: MIC (minimal inhibitory concentration)
# Method: as §1, §2
# (3) Citrobacter freundii IFO 12681
# [4] = tested on: Staphylococcus aureus FDA 209P; test: MIC by agar dilution method, Staphylococcus aureus FDA 209P; type: cell-based; settings: FDA209P, Trypticase soy agar, about 10^8 CFU/ml, 18 hours at 37° C., read-out: MIC (minimal inhibitory concentration)
# Method: as §1, §2
# (1) Staphylococcus aureus FDA 209P
# [5] = stability against a mouse kidney homogenate; type: in vitro ADME; settings: 0.05M phosphate buffer (pH 6.9), 30° C., test compound solution 1 mg/ml mixed 1:1, read-out: Half life (T1/2)
# Method: Several examples of the objective compound (I) as obtained in Examples were tested for stability against a mouse Kidney homogenate by the following method.
# A kidney homogenate was prepared by grinding down 50 g of the mouse kidney in 200 ml of cooled 0.05M phosphate buffer (pH 6.9) and stored at -20° C. A 200 μl portion of this mouse kidney homogenate and 200 μl of an aqueous solution of the test compound (1 mg/ml) were intimately mixed and kept at 30° C. At 10-minute intervals, a 25 μl portion of the mixture was taken and added to 25 μl of ice bath-cooled methanol to thereby terminate the reaction between renal enzymes and the test compound. The amount of the remaining test compound was determined by measuring the inhibitory action against β-lactamaseproduced by Proteus vulgaris GN4413 or Enterobacter cloacae TN1282 by the method described in Journal of Antibiotics, 34, 212-217 (1981).
smiles,measurement,setting,value
"CC(=O)NCCSC1=C(C(=O)O)N2C(=O)[C@@H](C3(O)CCS(=O)(=O)C3)[C@H]2C1 (stereo partly drawn) [Example 1 (c), Sodium 5,6-cis-3-(2-acetamidoethylthio)-6-(1-hydroxy-3-thiacyclopentyl-3,3-dioxido)-7-oxo-1-azabicyclo-[3.2.0]hept-2-ene-2-carboxylate]",MIC,[1],3.13 µg/mL
same,MIC,[2],0.39 µg/mL
same,MIC,[3],3.13 µg/mL
same,MIC,[4],3.13 µg/mL
same,half-life,[5],> 2 h
"CC(=O)N/C=C/SC1=C(C(=O)O)N2C(=O)[C@@H](C3(O)CCS(=O)(=O)C3)[C@H]2C1 (stereo partly drawn) [13 (b), sodium 5,6-cis-3-[(E)-2-acetamidovinylthio]-6-(1-hydroxy-3-thiacyclopentyl-3,3-dioxido)-7-oxo-1-azabicyclo[3.2.0]hept-2-ene-2-carboxylate]",MIC,[1],0.78 µg/mL
same,MIC,[2],0.39 µg/mL
same,MIC,[3],1.56 µg/mL
same,MIC,[4],1.56 µg/mL
same,half-life,[5],> 2 h
"O=C(O)C1=C(Sc2ncccn2)C[C@@H]2[C@H](C3(O)CCS(=O)(=O)C3)C(=O)N12 (stereo partly drawn) [2 (b), sodium 5,6-cis-3-(2-pyrimidinylthio)-6-(1-hydroxy-3-thiacyclopentyl-3,3-dioxido)-7-oxo-1-azabicyclo[3.2.0]hept-2-ene-2-carboxylate]",MIC,[1],6.25 µg/mL
same,MIC,[2],3.13 µg/mL
same,MIC,[3],6.25 µg/mL
same,MIC,[4],0.78 µg/mL
same,half-life,[5],> 2 h
"CC(=O)NCCSC1=C(C(=O)O)N2C(=O)[C@@H](C(O)CS(C)(=O)=O)[C@H]2C1 (stereo partly drawn) [12 (b), sodium 5,6-cis-3-(2-acetamidoethylthio)-6-(1-hydroxy-2-methylsulfonylethyl)-7-oxo-1-azabicyclo[3.2.0]hept-2-ene-2-carboxylate]",MIC,[1],1.56 µg/mL
same,MIC,[2],0.39 µg/mL
same,MIC,[3],3.13 µg/mL
same,MIC,[4],1.56 µg/mL
same,half-life,[5],> 2 h
CC(=O)NCCSC1=C(C(=O)O)N2C(=O)C(C(O)CS(=O)(=O)c3ccccc3)C2C1 (stereo not drawn) [20 (b)],MIC,[1],3.13 µg/mL
same,MIC,[2],0.39 µg/mL
same,MIC,[3],1.56 µg/mL
same,MIC,[4],1.59 µg/mL
same,half-life,[5],> 2 h
CCS(=O)(=O)CC(O)C1C(=O)N2C(C(=O)O)=C(SCCNC(C)=O)CC12 (stereo not drawn) [15 (b)],MIC,[1],3.13 µg/mL
same,MIC,[2],0.2 µg/mL
same,MIC,[3],3.13 µg/mL
same,MIC,[4],6.25 µg/mL
same,half-life,[5],> 2 h
